Data: patent publication US20070117152A1, “Biosensor” (FUJIFILM Corporation, priority 2005, published 2007)

How the values were obtained:
Carbonic anhydrase = Carbonic anhydrase (Bos taurus, UniProt P00921); experiment: Evaluation of binding ability of hydrochlorothiazide on CA-immobilized chip by surface plasmon resonance (Example 1); conditions: 50 μM in 1×PBS pH 7.4
Protocol: (§1) The solution in the measurement chip was removed, and the dielectric block was covered with silicone rubber to prepare a cell having an internal volume of 15 μl. The silicone rubber cover was provided with two pores with diameters of 1 mm, and a teflon tube (i.d.: 0.5 mm; o.d.: 1 mm) was allowed to path therethrough to prepare a flow channel system. The chip provided with such flow channel system was mounted on the surface plasmon resonance measurement device of the present invention. Hereafter, liquid exchange was carried out by pouring 500 μl of liquid for 5 seconds.
The flow channel was filled with 70 μl of a mixed solution of 200 mM EDC (N-ethyl-N′-(3-dimethylaminopropyl)carbodiimide hydrochloride) and 50 mM NHS (N-hydroxysuccinimide), and was then allowed to stand for 10 minutes. […] The amount of the immobilized proteins was determined based on changes in signal intensities before and after protein immobilization.
[…] Based on the signal intensity before liquid exchange, changes in the signal intensity were measured at intervals of 0.5 seconds. […] Changes in signal intensities were determined from 5 seconds before the initiation of the exchange to 2 minutes after the exchange.

[1] = biological target: T1, Bovine Carbonic Anhydrase (Bos taurus, UniProt P00921); experiment: Evaluation of binding ability of hydrochlorothiazide on CA-immobilized chip by surface plasmon resonance (Example 2); conditions: 50 μM in 1×PBS pH 7.4
T1 construct: purchased SIGMA
Protocol: as §1
The flow channel was filled with 70 μl of a mixed solution of 200 mM EDC (N-ethyl-N′-(3-dimethylaminopropyl)carbodiimide hydrochloride) and 50 mM NHS (N-hydroxysuccinimide), and was then allowed to stand for 10 minutes. After the liquid exchange was carried out twice with 100 μl of Acetate 5.0 buffer (BIAcore), the liquid was exchanged with the acetate 5.0 solution containing Bovine Carbonic Anhydrase (hereinafter referred to as CA) (SIGMA) with the concentration shown in Table 2, and the resultant was allowed to stand for a certain period to immobilize CA. The inside of the chip was exchanged with 1 M ethanolamine solution and was then allowed to stand for 10 minutes. The interior of the chip was exchanged twice with 100 μl of Acetate 5.0 buffer to prepare CA-immobilized chip. The amount of the immobilized proteins was determined based on changes in signal intensities before and after CA immobilization. Also, the period for adding CA solution is changed, and the minimum period necessary to achieve the immobilized CA amount of 3000 RU or more was determined.
The flow channel system of the CA-immobilized chips, the amount of CA immobilized thereto was approximately 3,000 RU, was filled with 1×PBS buffer (pH 7.4). Based on the signal intensity before liquid exchange, changes in the signal intensity were measured at intervals of 0.5 seconds. The content of the flow channel system was exchanged with a hydrochlorothiazide solution (Sigma) (dissolved in 1×PBS (pH 7.4) to result in 50 μM therein). Changes in signal intensities were determined from 5 seconds before the initiation of the exchange to 2 minutes after the exchange.

T1 sequence (P00921 whole entry): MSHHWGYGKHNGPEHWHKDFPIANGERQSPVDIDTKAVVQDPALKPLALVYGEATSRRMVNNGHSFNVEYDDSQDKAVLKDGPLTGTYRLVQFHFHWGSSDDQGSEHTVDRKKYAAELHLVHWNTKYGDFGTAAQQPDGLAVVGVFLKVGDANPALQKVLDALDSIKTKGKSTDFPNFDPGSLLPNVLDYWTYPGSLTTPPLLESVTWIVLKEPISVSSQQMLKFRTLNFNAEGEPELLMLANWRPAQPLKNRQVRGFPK
Carbonic anhydrase, sequence (P00921 whole entry): as above

## NS(=O)(=O)c1cc2c(cc1Cl)NCNS2(=O)=O [Hydrochlorothiazide, hydrochlorothiazide]
Carbonic anhydrase; Level 1: dextran (branched) chip, carbonic anhydrase immobilized 1500 RU
  Hydrochlorothiazide Binding amount: 5 RU
Carbonic anhydrase; Level 5: pullulan (linear) chip, carbonic anhydrase immobilized 2500 RU
  Hydrochlorothiazide Binding amount: 10 RU
[1]; Level 2: dextran 15% by weight chip, CA 200 μg/ml
  Hydrochlorothiazide Binding amount: −15 RU
[1]; Level 3: dextran 25% by weight chip, CA 20 μg/ml
  Hydrochlorothiazide Binding amount: 2 RU
[1]; Level 4: dextran 25% by weight chip, CA 200 μg/ml
  Hydrochlorothiazide Binding amount: −30 RU
[1]; Level 5: amylose 10% by weight chip, CA 20 μg/ml
  Hydrochlorothiazide Binding amount: 17 RU
[1]; Level 6: amylose 10% by weight chip, CA 200 μg/ml
  Hydrochlorothiazide Binding amount: 11 RU
[1]; Level 7: amylose 15% by weight chip, CA 20 μg/ml
  Hydrochlorothiazide Binding amount: 15 RU
[1]; Level 8: amylose 15% by weight chip, CA 200 μg/ml
  Hydrochlorothiazide Binding amount: 10 RU
